Key:
Mv1Lu cells = experiment: In vitro test for cytotoxicity of acetaminophen; type: cell-based, mink; conditions: five days of incubation; concentration as high as 1000 μg/mL
Experimental: Specifically, mink lung epithelial cells, Mv1Lu, were treated with acetaminophen.

MHV-A59 = experiment: In vivo test of acetaminophen against MHV-infected mice; parameters: species or system C57BL/6 mice; conditions: 0.25 mg/mL acetaminophen solution daily via oral gavage, MHV-A59 5×10^6 PFU/mouse i.p.
From the text: The present invention utilized the Mouse Hepatitis Virus (MHV) and swine virus PRRS as the infectious agents to evaluate the effectiveness of acetaminophen in vivo. We aimed to perform mouse and piglet survival experiments to completely assess acetaminophen against virus infection as a preclinical evaluation.
Intraperitoneal administration of MHV-A59 with high titer (5×10^6 PFU/mouse) on C57BL/6 mice to cause a high mortality rate. The MHV-infected mice were grouped as follows: 1. PBS vehicle control; 2. 0.25 mg/mL of acetaminophen solution treatment groups followed by treating acetaminophen daily via oral gavage. The viral administration cause loss of body weights on mice. […] These animal data strongly argue the potential application of acetaminophen in developing to an antiviral agent.

PRRS virus (PRRSV2) [1] = experiment: In vivo test of acetaminophen against PRRS-infected piglet; parameters: unit not given here
From the text: (§1) In this embodiment, the weaned piglets were selected according to their PRRS syndromes. The three piglets were randomly selected in accordance with the professional experience on the syndromes of PRRS and the […] principles of animal test were followed as well. Three infected piglets were proceeded for preliminary test of the effectiveness of antiviral drugs of PRRS.
(§2) Three infected piglets raised in an isolated pen of the same pig house. Eighty milliliter acetaminophen therapy was given three times orally. Their blood samples were test weekly. Unfortunately, piglet 1 was unable to make over the first week. The other 2 piglets were able make over the process.

PRRS virus (PRRSV2) [2] = experiment: as above; parameters: key: −: Negative; ±: Virus was detected at very low concentrations
From the text: as §1, §2

PRRS virus (PRRSV2) [3] = experiment: as above; conditions: 80 mL acetaminophen therapy three times orally
From the text: as §1, §2

## CC(=O)Nc1ccc(O)cc1 [acetaminophen]
Mv1Lu cells
  cytotoxicity on Mv1Lu cells: no significant cytotoxicity
MHV-A59; compared to MHV-only mice
  body weight of MHV-infected mice: significantly retained the mouse weights
MHV-A59; virus vehicle control 100% death rate
  survival rate (printed as mortality rate) of MHV-infected mice: 50%
PRRS virus (PRRSV2) [1]; Piglet 1, test 1 (weekly blood sample)
  Concentration of PRRSV2 by RT-PCR: 7.7 × 10 ^5
PRRS virus (PRRSV2) [1]; Piglet 2, test 2 (weekly blood sample), weekly blood test 2
  Concentration of PRRSV2 by RT-PCR: 1.3 × 10^3
PRRS virus (PRRSV2) [1]; Piglet 3, test 1 (weekly blood sample), weekly blood test 1
  Concentration of PRRSV2 by RT-PCR: 8.2 × 10 ^4
PRRS virus (PRRSV2) [1]; Piglet 3, test 3 (weekly blood sample), weekly blood test 3
  Concentration of PRRSV2 by RT-PCR: 2.9 × 10 ^2
PRRS virus (PRRSV2) [2]; Piglet 2, test 1 (weekly blood sample), weekly blood test 1
  Concentration of PRRSV2 by RT-PCR: −
PRRS virus (PRRSV2) [2]; Piglet 2, test 3 (weekly blood sample), weekly blood test 3
  Concentration of PRRSV2 by RT-PCR: −
PRRS virus (PRRSV2) [2]; Piglet 3, test 2 (weekly blood sample), weekly blood test 2
  Concentration of PRRSV2 by RT-PCR: ±
PRRS virus (PRRSV2) [3]; piglets 2 and 3
  virus concentration in the body: decreased
PRRS virus (PRRSV2) [3]; three infected piglets
  survival of PRRS-infected piglets: piglets 2 and piglet 3 survived
